Data: patent publication US7659245B2, “Macrocylic inhibitors of hepatitis C virus” (Tibotec Pharmaceuticals Ltd, priority 2005, dated 2010)
pEC50, pKi: −log10 of the molar value.

Experiments:
[1] = test system: HCV replicons (Huh-7 luc/neo cells, NS3-NS5B regions of HCV type 1b); assay: Replicon assay: inhibition of HCV RNA replication in Huh-Luc cells (luciferase read-out); format: cell-based; details: Hepatitis C virus, Huh-7, 72 h, HCV type 1b replicon, luciferase activity after three days
Protocol: The in vitro antiviral activity against HCV of the compounds of formula (I) was tested in a cellular HCV replicon system based on Lohmann et al. (1999) Science 285:110-113, with the further modifications described by Krieger et al. (2001) Journal of Virology 75: 4614-4624 (incorporated herein by reference), which is further exemplified in the examples section. This model, while not a complete infection model for HCV, is widely accepted as the most robust and efficient model of autonomous HCV RNA replication currently available. […] It will be appreciated that it is important to distinguish between compounds that specifically interfere with HCV functions from those that exert cytotoxic or cytostatic effects in the HCV replicon model, and as a consequence cause a decrease in HCV RNA or linked reporter enzyme concentration. Assays are known in the field for the evaluation of cellular cytotoxicity based for example on the activity of mitochondrial enzymes using fluorogenic redox dyes such as resazurin. Furthermore, cellular counter screens exist for the evaluation of non-selective inhibition of linked reporter gene activity, such as firefly luciferase. Appropriate cell types can be equipped by stable transfection with a luciferase reporter gene whose expression is dependent on a constitutively active gene promoter, and such cells can be used as a counter-screen to eliminate non-selective inhibitors.
The compounds of formula (I) were examined for activity in the inhibition of HCV RNA replication in a cellular assay. […] The cellular assay was based on a bicistronic expression construct, as described by Lohmann et al. (1999) Science vol. 285 pp. 110-113 with modifications described by Krieger et al. (2001) Journal of Virology 75: 4614-4624, in a multi-target screening strategy. In essence, the method was as follows.
The assay utilized the stably transfected cell line Huh-7 luc/neo (hereafter referred to as Huh-Luc). This cell line harbors an RNA encoding a bicistronic expression construct comprising the wild type NS3-NS5B regions of HCV type 1b translated from an Internal Ribosome Entry Site (IRES) from encephalomyocarditis virus (EMCV), preceded by a reporter portion (FfL-luciferase), and a selectable marker portion (neo^R, neomycine phosphotransferase). The construct is bordered by 5′ and 3′ NTRs (non-translated regions) from HCV type 1b. Continued culture of the replicon cells in the presence of G418 (neo^R) is dependent on the replication of the HCV RNA. The stably transfected replicon cells that express HCV RNA, which replicates autonomously and to high levels, encoding inter alia luciferase, are used for screening the antiviral compounds.
The replicon cells were plated in 384 well plates in the presence of the test and control compounds which were added in various concentrations. Following an incubation of three days, HCV replication was measured by assaying luciferase activity (using standard luciferase assay substrates and reagents and a Perkin Elmer ViewLux™ ultraHTS microplate imager). Replicon cells in the control cultures have high luciferase expression in the absence of any inhibitor. The inhibitory activity of the compound on luciferase activity was monitored on the Huh-Luc cells, enabling a dose-response curve for each test compound. EC50 values were then calculated, which value represents the amount of the compound required to decrease by 50% the level of detected luciferase activity, or more specifically, the ability of the genetically linked HCV replicon RNA to replicate.

[2] = molecular target: full-length hepatitis C NS3 protease enzyme (HCV NS3/4A protease complexes) (Hepatitis C virus genotype 1a, UniProt P27958); assay: Inhibition assay (enzymatic assay) of HCV NS3/4A protease; format: biochemical; details: enzyme 1 nM, 25 μM NS4A cofactor, 0.5 μM depsipeptide substrate, 30° C., competitive model
Protocol: The aim of this in vitro assay is to measure the inhibition of HCV NS3/4A protease complexes by the compounds of the present invention. This assay provides an indication of how effective compounds of the present invention would be in inhibiting HCV NS3/4A proteolytic activity.
The inhibition of full-length hepatitis C NS3 protease enzyme was measured essentially as described in Poliakov, 2002 Prot Expression & Purification 25 363 371. Briefly, the hydrolysis of a depsipeptide substrate, Ac-DED(Edans)EEAbuψ[COO]ASK(Dabcyl)-NH2 (AnaSpec, San José, USA), was measured spectrofluorometrically in the presence of a peptide cofactor, KKGSVVIVGRIVLSGK (Åke Engström, Department of Medical Biochemistry and Microbiology, Uppsala University, Sweden). [Landro, 1997 #Biochem 36 9340-9348]. The enzyme (1 nM) was incubated in 50 mM HEPES, pH 7.5, 10 mM DTT, 40% glycerol, 0.1% n-octyl-D-glucoside, with 25 μM NS4A cofactor and inhibitor at 30° C. for 10 min, whereupon the reaction was initiated by addition of 0.5 μM substrate. Inhibitors were dissolved in DMSO, sonicated for 30 sec. and vortexed. The solutions were stored at −20° C. between measurements.
The final concentration of DMSO in the assay sample was adjusted to 3.3%. The rate of hydrolysis was corrected for inner filter effects according to published procedures. [Liu, 1999 Analytical Biochemistry 267 331-335]. Ki values were estimated by non-linear regression analysis (GraFit, Erithacus Software, Staines, MX, UK), using a model for competitive inhibition and a fixed value for Km (0.15 μM). A minimum of two replicates was performed for all measurements.

Sequence of full-length hepatitis C NS3 protease enzyme (HCV NS3/4A protease complexes) (P27958 1027-1657, one chain of several): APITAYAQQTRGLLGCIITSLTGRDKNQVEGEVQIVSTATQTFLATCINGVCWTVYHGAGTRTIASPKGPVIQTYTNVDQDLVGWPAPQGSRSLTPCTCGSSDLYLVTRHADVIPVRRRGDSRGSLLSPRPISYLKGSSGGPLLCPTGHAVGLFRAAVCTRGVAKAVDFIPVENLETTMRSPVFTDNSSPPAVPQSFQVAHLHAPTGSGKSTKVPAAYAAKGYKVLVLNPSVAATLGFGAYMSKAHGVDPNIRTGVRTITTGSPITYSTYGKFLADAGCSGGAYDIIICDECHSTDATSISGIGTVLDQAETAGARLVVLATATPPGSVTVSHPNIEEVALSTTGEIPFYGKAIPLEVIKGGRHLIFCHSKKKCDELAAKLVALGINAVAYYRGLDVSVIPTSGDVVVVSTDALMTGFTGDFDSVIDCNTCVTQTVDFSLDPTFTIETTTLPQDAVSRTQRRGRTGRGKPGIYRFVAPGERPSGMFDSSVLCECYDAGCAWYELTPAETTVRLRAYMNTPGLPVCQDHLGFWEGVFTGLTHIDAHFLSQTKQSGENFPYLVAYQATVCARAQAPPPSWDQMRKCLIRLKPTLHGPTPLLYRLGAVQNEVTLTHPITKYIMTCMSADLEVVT

| Compound | pEC50 [1] | pKi [2] |
| --- | --- | --- |
| COc1ccc(-c2nc(O[C@@H]3C[C@H]4C(=O)N[C@]5(C(=O)NS(=O)(=O)C6CC6)C[C@H]5/C=C\CCCCN(C)C(=O)[C@@H]4C3)c3ccc(OC)c(C)c3n2)cc1 [Compound 138, Cyclopropanesulfonic acid {17-[7-methoxy-2-(4-methoxy-phenyl)-8-methyl-quinazolin-4-yloxy]-13-methyl-2,14-dioxo-3,13-diaza-tricyclo[13.3.0.0*4,6*]octadec-7-ene-4-carbonyl}-amide] | 6.70 to 9.30 | 8.31 to 10.00 |
| COc1ccc2c(O[C@@H]3C[C@H]4C(=O)N[C@]5(C(=O)NS(=O)(=O)C6CC6)C[C@H]5/C=C\CCCCN(C)C(=O)[C@@H]4C3)nc(-c3nc(C(C)C)cs3)nc2c1 [Compound 45, Cyclopropanesulfonic acid {17-[2-(4-isopropyl-thiazol-2-yl)-7-methoxy-quinazolin-4-yloxy]-13-methyl-2,14-dioxo-3,13-diaza-tricyclo[13.3.0.0*4,6*]octadec-7-ene-4-carbonyl}-amide] | 6.70 to 9.30 | 8.31 to 10.00 |
| COc1ccc2c(O[C@@H]3C[C@H]4C(=O)N[C@]5(C(=O)NS(=O)(=O)C6CC6)C[C@H]5/C=C\CCCCN(C)C(=O)[C@@H]4C3)nc(-c3ccccc3)nc2c1 [Compound 21, Cyclopropanesulfonic acid [17-(7-methoxy-2-phenyl-quinazolin-4-yloxy)-13-methyl-2,14-dioxo-3,13-diaza-tricyclo[13.3.0.0*4,6*]octadec-7-ene-4-carbonyl]-amide] | 6.70 to 9.30 | 8.31 to 10.00 |
| COc1ccc2c(O[C@@H]3C[C@H]4C(=O)N[C@]5(C(=O)NS(=O)(=O)C6CC6)C[C@H]5/C=C\CCCCN(C)C(=O)[C@@H]4C3)nc(-c3ccccc3)nc2c1C [Compound 89, Cyclopropanesulfonic acid [17-(7-methoxy-8-methyl-2-phenyl-quinazolin-4-yloxy)-13-methyl-2,14-dioxo-3,13-diaza-tricyclo[13.3.0.0*4,6*]octadec-7-ene-4-carbnyl]-amide] | 6.70 to 9.30 | 8.31 to 10.00 |
| COc1ccc2c(O[C@@H]3C[C@H]4C(=O)N[C@]5(C(=O)NS(=O)(=O)C6(C)CC6)C[C@H]5/C=C\CCCCN(C)C(=O)[C@@H]4C3)nc(-c3cccc(F)c3)nc2c1C [Compound 161, 1-Methyl-cyclopropanesulfonic acid {17-[2-(3-fluoro-phenyl)-7-methoxy-8-methyl-quinazolin-4-yloxy]-13-methyl-2,14-dioxo-3,13-diazatricyclo[13.3.0.0*4,6*]octadec-7-ene-4-carbonyl}-amide] | 6.70 to 9.30 | 8.31 to 10.00 |
| CC(C)Nc1nc(O[C@@H]2C[C@H]3C(=O)N[C@]4(C(=O)NS(=O)(=O)C5CC5)C[C@H]4/C=C\CCCCN(C)C(=O)[C@@H]3C2)c2ccccc2n1 [Compound 71, Cyclopropanesulfonic acid [17-(2-isopropylamino-quinazolin-4-yloxy)-13-methyl-2,14-dioxo-3,13-diaza-tricyclo[13.3.0.0*4,6*]octadec-7-ene-4-carbonyl]-amide] | 6.00 to 6.70 | 8.31 to 10.00 |
| COc1ccc2c(O[C@@H]3C[C@H]4C(=O)N[C@]5(C(=O)NS(=O)(=O)C(C)C)C[C@H]5/C=C\CCCCN(C)C(=O)[C@@H]4C3)nc(-c3cccc(F)c3)nc2c1C [Compound 162, Propane-2-sulfonic acid {17-[2-(3-fluoro-phenyl)-7-methoxy-8-methyl-quinazolin-4-yloxy]-13-methyl-2,14-dioxo-3,13-diazatricyclo[13.3.0.0*4,6*]octadec-7-ene-4-carbonyl}-amide] | 6.00 to 6.70 | 8.31 to 10.00 |
| CC(C)c1csc(-c2nc(O[C@@H]3C[C@H]4C(=O)N[C@]5(C(=O)NS(=O)(=O)C6CC6)C[C@H]5/C=C\CCCCN(C)C(=O)[C@@H]4C3)c3ccccc3n2)n1 [Compound 44, Cyclopropanesulfonic acid {17-[2-(4-isopropyl-thiazol-2-yl)-quinazolin-4-yloxy-]-13-methyl-2,14-dioxo-3,13-diaza-tricyclo[13.3.0.0*4,6*]octadec-7-ene-4-carbonyl}-amide] | 6.70 to 9.30 | 8.31 to 10.00 |
| COc1ccc2c(O[C@@H]3C[C@H]4C(=O)N[C@]5(C(=O)NS(=O)(=O)C6CC6)C[C@H]5/C=C\CCCCN(C)C(=O)[C@@H]4C3)nc(-n3ccc(C(C)C)n3)nc2c1C [Compound 147, N-[17-[2-(3-isopropylpyrazol-1-yl)-7-methoxy-8-methylquinazolin-4-yloxy]-13-methyl-2,14-dioxo-3,13-diazatricyclo[13.3.0.0^4,6]octadec-7-ene-4-carbonyl](cyclo-propyl)sulfonamide] | 6.70 to 9.30 | 8.31 to 10.00 |
| COc1ccc2c(O[C@@H]3C[C@H]4C(=O)N[C@]5(C(=O)NS(=O)(=O)C6CC6)C[C@H]5/C=C\CCCCCNC(=O)N4C3)nc(-c3ccccc3)nc2c1C [Compound 174, Cyclopropanesulfonic acid [18-(7-methoxy-8-methyl-2-phenyl-quinazolin-4-yloxy)-2,15-dioxo-3,14,16-triaza-tricyclo[14.3.0.0*4,6*]nonadec-7-ene-4-carbonyl]-amide] | 6.70 to 9.30 | 8.31 to 10.00 |
| COc1ccc2c(O[C@@H]3C[C@H]4C(=O)N[C@]5(C(=O)NS(=O)(=O)C6CC6)C[C@H]5/C=C\CCCCN(C)C(=O)N4C3)nc(-c3ccccc3)nc2c1C [Compound 94, Cyclopropanesulfonic acid [17-(7-methoxy-8-methyl-2-phenyl-quinazolin-4-yloxy)-13-methyl-2,14-dioxo-3,13,15-triaza-tricyclo[13.3.0.0*4,6*]octadec-7-ene-4-carbonyl]-amide] | 6.70 to 9.30 | 8.31 to 10.00 |
| COc1ccc(-c2nc(O[C@@H]3C[C@H]4C(=O)N[C@]5(C(=O)NS(=O)(=O)C6(C)CC6)C[C@H]5/C=C\CCCCN(C)C(=O)N4C3)c3ccc(OC)c(C)c3n2)cc1 [Compound 132, 1-Methyl-cyclopropanesulfonic acid {17-[7-methoxy-2-(4-methoxy-phenyl)-8-methyl-quinazolin-4-yloxy]-13-methyl-2,14-dioxo-3,13,15-triaza-tricyclo[13.3.0.0*4,6*]octadec-7-ene-4-carbonyl}-amide] | 6.70 to 9.30 | 8.31 to 10.00 |
| CN1CCCC/C=C\[C@@H]2C[C@@]2(C(=O)NS(=O)(=O)C2CC2)NC(=O)[C@@H]2C[C@@H](Oc3nc(N4CCOCC4)nc4ccccc34)C[C@H]2C1=O [Compound 36, Cyclopropanesulfonic acid [13-methyl-17-(2-morpholin-4-yl-quinazolin-4-yloxy)-2,14-dioxo-3,13-diaza-tricyclo[13.3.0.0*4,6*]octadec-7-ene-4-carbonyl]-amide] | 6.00 to 6.70 | 7.00 to 8.30 |
